Columns and labels:
[1] = biotransformation in liver microsomes; format: in vitro ADME; details: bicarbonate buffer, CO2 atmosphere, UDPGA
Text: A number of studies have been conducted on precursor compounds to those of formula I of the present invention. In particular, studies have been carried out on 5,8,14-triazatetracyclo[10.3.1.0^2,110.0^4,9]-hexadeca-2(11),3,5,7,9-pentaene: [drawing 12] Means of the synthesis of this compound may be found International Patent Publication No. WO 99/35131 and WO 01/62736.

[2] = in vivo metabolism study, human (circulating and excreted metabolites)
Text: (§1) The compound 5,8,14-triazatetracyclo[10.3.1.0^2,110.0^4,9]-hexadeca-2(11),3,5,7,9-pentaene has also been studied in vivo (rat, monkey, mouse, and human). Metabolite structures are described in Scheme I below.
(§2) The N-carbamoyl glucuronide represents an unusual, albeit not unprecedented metabolite that arises via association of carbon dioxide with the secondary amine followed by glucuronidation. […] The only excreted metabolites in human were the hydroxyquinoxaline metabolite (2.9% of dose): [drawing 17] and N-carbamoyl glucuronide (3.6% of dose).

[3] = in vivo metabolism study, preclinical species
Text: as §1, §2

## c1cnc2cc3c(cc2n1)C1CNCC3C1 [5,8,14-triazatetracyclo[10.3.1.0^2,110.0^4,9]-hexadeca-2(11),3,5,7,9-pentaene]
[1]
  biotransformation in liver microsomes: underwent N-carbamoyl glucuronidation

## O=CN1CC2CC(C1)c1cc3nccnc3cc12 [N-formyl]
[2]
  metabolites in human circulation: Metabolites in human circulation included

## Oc1cnc2cc3c(cc2n1)C1CNCC3C1 (stereo not drawn) [hydroxyquinoxaline metabolite]
[2]; in vivo
  excreted metabolite in human: 2.9 % of dose

## O=C(O)C1OC(OC(=O)N2CC3CC(C2)c2cc4nccnc4cc23)C(O)C(O)C1O (stereo not drawn) [N-carbamoyl glucuronide]
[2]
  metabolites in human circulation: Metabolites in human circulation included
[2]; after 5,8,14-triazatetracyclo[10.3.1.0^2,110.0^4,9]-hexadeca-2(11),3,5,7,9-pentaene
  excreted metabolite in human: 3.6 % of dose
[3]
  metabolite present in rat and monkey: present in rat and monkey
